Laboratory results from patent publication US11839210B1, “Plant growth promoter with strigolactones regulation activities” (King Abdullah University of Science and Technology, priority 2017, dated 2023).

Tests used:
epi-5DS (5-deoxystrigol) = assay: LC-MS/MS levels of epi-5DS in rice root exudates and roots; format: in vivo; settings: −Pi, 5 μM zaxinone
Method: (§1) For the analysis of SLs, one week-old seedlings were further transferred into 50 ml falcon tube (three seedlings per tube) containing Hoagland nutrient solution with K2HPO4·2H2O (+Pi) and grown in the growth cabinet for one week. The rice seedlings were then subjected to phosphate deficiency for another one week period. On the day of root exudates collection, rice seedlings were first treated with 5 μM zaxinone for 6 h and then root exudates and root tissues were collected from each tube for LC-MS/MS analysis and Striga bioassays.
(§2) For the quantification of 4-deoxyorobanchol in rice root exudates, 50 ml of root exudate spiked with 0.672 ng of D6-5-deoxystrigol, was brought on a 500 mg/3 ml fast SPE C18 column preconditioned with 6 ml of methanol and 6 ml of water. After washing with 6 ml of water, strigolactones were eluted in 5 ml of acetone. The 4-deoxyorobanchol fraction (acetone-water solution) was concentrated to SLs aqueous solution (˜1 ml), followed by extraction with 1 ml of ethyl acetate. Then 750 μl of 4-deoxyorobanchol enriched organic phase was transferred to a 1.5 ml tube and evaporated to dryness under vacuum. The residue was dissolved in 100 μl of acetonitrile:water (25:75, v:v) and filtered through a 0.22 μm filter for LC-MS/MS analysis.
(§3) For the quantification of 4-deoxyorobanchol in rice root, plant tissue material was lyophilized and ground. 30 mg root tissue spiked with 0.672 ng of D6-5-deoxystrigol was extracted with 2 ml of ethyl acetate in an ultrasound bath (Branson 3510 ultrasonic bath) for 15 minutes, followed by centrifugation for 8 minutes at 3800 rpm at 4° C. The supernatant was collected and the pellet was re-extracted with 2 ml of ethyl acetate. The two supernatants were then combined and dried under vacuum. The residue was dissolved in 100 μl of ethyl acetate and 2 ml of hexane. The resulting extract solution was loaded on a Silica gel SPE column (500 mg/3 ml) preconditioned with 3 ml of ethyl acetate and 3 ml of Hexane. After washing with 3 ml of Hexane, 4-deoxyorobanchol was eluted in 3 ml of ethyl acetate and evaporated to dryness under vacuum. The residue was re-dissolved in 200 μl of acetonitrile:water (25:75, v:v) and filtered through a 0.22 μm filter for LC-MS/MS analysis.
(§4) 4-Deoxyorobanchol was analyzed by using HPLC-Q-Trap-MS/MS with MRM mode. Chromatographic separation was achieved on an Agilent 1200 HPLC system with an Acquity UPLC BEH C18 column (50×2.1 mm; 1.7 μm; Waters Corp.). Mobile phases consisted of water:acetonitrile (95:5, v:v, A) and acetonitrile (B), both containing 0.1% formic acid. […]
The levels of epi-5DS (5-deoxystrigol) in root exudates (FIG. 15A) and roots (FIG. 15B) for WT and zas mutant rice under −Pi conditions (phosphate deficient) with zaxinone (5 μM) treatment were determined by LC-MS/MS. […]

4-deoxyorobanchol (4-DO) = assay: LC-MS/MS quantification of 4-deoxyorobanchol in rice roots and root exudates; format: in vivo; settings: phosphate-starved, 6 h
Method: as §1, §2, §3, §4
SL, 4-deoxyorobanchol (4-DO), was quantified in wild-type and zas mutant roots (FIG. 18A) and root exudates (FIG. 18B) without added zaxinone and in response to zaxinone (5 μM) under phosphate starvation. […]

Striga hermonthica = Striga hermonthica infection in rice (pots with Striga infested soil); format: in vivo, Striga hermonthica on rice cv. IAC-165; settings: 10 μM zaxinone
Method: About 10 mg (4000) of Striga seeds were thoroughly mixed in 2 L soil and sand mixture (1:1), and added to a 3 L plastic pot. The pots with Striga seeds were kept under moist conditions at 35° C. for 10 days. Five days-old three rice seedlings (Oryza sativa L. cv. IAC-165) were then planted in the middle of each pot. A stock of 10 mM of zaxinone was prepared by mixing with an emulsifier (cyclohexanone+Atlas G1086). Three days after rice planting, zaxinone was applied at 10 μM through 20 ml water in each pot. Zaxinone was applied twice a week for up-to five weeks. Striga emergences were recorded six weeks after rice planting.

[1] = system: wild-type and zas mutant rice plants; assay: Rescue of zas mutant phenotype, soil-grown rice in rhizotron root analysis system; format: in vivo, Oryza sativa Nipponbare; settings: 10 μM zaxinone
Method: Three days-old seedlings were grown in soil in Hoagland nutrient solution containing K2HPO4·2H2O (+Pi) with 10 μM zaxinone treatment. The solution was changed every other day for 2 weeks, adding the chemical at each renewal. Plants grown without zaxinone served as the controls and phenotypic data were recorded. To prevent zaxinone degradation from light exposure, 1 μl/ml emulsifier was added into the Hoagland nutrient solution.

Striga hermonthica seeds = assay: Striga hermonthica seed germination bioassay with rice root exudates; format: in vivo
Method: as §1
The Striga seed germination bioassay was carried out in the following manner After 10 days of pre-conditioning (30° C. under moisture for 10 days), Striga seeds were supplied with 50 μl of SL collected from root exudates of zaxinone treated and non-treated wild-types and zas mutants. After SLs application, Striga seeds were incubated at 30° C. in the dark for two days. Germinated (seeds with radicle) and non-germinated seeds were counted under a binocular to calculate germination rates (%).

`CC(=O)/C=C/C=C(C)/C=C/C1=C(C)C[C@@H](O)CC1(C)C` [zaxinone, 3-OH-β-apo-13-carotenone] was tested, and the “decrease of epi-5DS level in root exudates, mock to zaxinone” value (epi-5DS (5-deoxystrigol); WT rice) was “around 75%”, the “decrease of epi-5DS level in roots, mock to zaxinone” value (epi-5DS (5-deoxystrigol); WT rice) was “around 50%” and the “decrease of epi-5DS level in root exudates, mock to zaxinone” value (epi-5DS (5-deoxystrigol); zas mutant rice) was “approximately 64%”. For the same compound, the “decrease of epi-5DS level in roots, mock to zaxinone” value (epi-5DS (5-deoxystrigol); zas mutant rice) was “around 75%”, the “SL content in roots and root exudates” value (4-deoxyorobanchol (4-DO); Shiokari d3 mutant, 5 μM) was “lowered” and the “SL content in roots and root exudates” value (4-deoxyorobanchol (4-DO); wild-type seedlings, 5 μM zaxinone) was “Reduction of SL content”. The “SL (4-deoxyorobanchol) content in roots after zaxinone” value (4-deoxyorobanchol (4-DO); zas mutant seedlings, 5 μM zaxinone, untreated 13) was 5 pgmg^−1dry-root-weight, the “SL (4-deoxyorobanchol) content in root exudates after zaxinone” value (4-deoxyorobanchol (4-DO); zas mutant seedlings, 5 μM zaxinone, untreated 35) was 5 pgmg^−1 dry-root-weight and the “reduction of number of emerging Striga plants vs untreated control” value (Striga hermonthica; rice cv. IAC-165 in pots with Striga infested soil) was “around 80%”. The “number of emerging Striga plants” value (Striga hermonthica; six-week old rice cv. IAC-165 in soil, mock around 15-25) was “less than 10”, the “shoots and roots vs untreated control seedlings (visual)” value ([1]; wild-type seedlings) was “some improvement” and the “shoots and roots vs untreated control seedlings (visual)” value ([1]; zas mutant seedlings) was “substantial improvement”. For the same compound, the “increase of shoot length over untreated seedlings” value ([1]; zas mutant) was “about 10 cm”, the “shoot biomass vs untreated” value ([1]; zas mutant) was “doubled” and the root surface area ([1]; zas mutant, untreated 15-20 cm^2) was 25-50 cm^2. The “decrease in germination rate of S. hermonthica seeds vs mock-treated culture medium” value (Striga hermonthica seeds; culture medium from zaxinone treated WT rice) was “approximately 50%”, the “decreases in germination rates of S. hermonthica seeds vs mock” value (Striga hermonthica seeds; culture medium from zaxinone treated WT rice and zas mutant rice (both together)) was 40-50% and the “decrease in germination rate of S. hermonthica seeds vs mock-treated culture medium” value (Striga hermonthica seeds; culture medium from zaxinone treated zas mutant rice) was “approximately 40%”. The “germination of Striga seeds exposed to root exudates” value (Striga hermonthica seeds; exudates from zaxinone treated zas mutant (zas/Zax), phosphate-starved, 5 μM) was “decreased to levels near the germination rates for the wild-type control”, the “germinating activity of root exudates on Striga hermonthica seeds” value (Striga hermonthica seeds; zas exudates, normal phosphorus (+Pi), 5 μM zaxinone, exudates diluted 9 times) was “decreased germinating activity of zas exudates (zas/Zax) to a level below that of the wild-type sample” and the “lowering of Striga seed germinating activity of root exudates” value (Striga hermonthica seeds; zas mutant exudates, phosphate-starved, 5 μM zaxinone, 6 h) was 40%.
